According to publication PMC9918898, “Bioactive Clerodane Diterpenoids from the Leaves of Casearia coriacea Vent” (Molecules, 2023):
Converted amounts (≈) assume the structure as drawn. “And” between values parts separate entries of the source, which are not always exact repeats. Identical values can stand only once. Like-named read-outs stand apart in the source and are kept apart here.

Tests used:
[1] = tested on: Leishmania mexicana mexicana; assay: Antileishmanial assay (AlamarBlue); type: cell-based
Method: (§1) A continuous in vitro culture of asexual erythrocyte stages of P. falciparum, chloroquine-sensitive strain 3D7 (ATCC), was maintained following the procedure of Trager and Jensen. Antiplasmodial activity tests were conducted as previously described by the determination of lactate deshydrogenase activity. IC50 was calculated from graphs (GraphPad Prism). T. brucei strain 427 (Molteno Institute in Cambridge, UK) and L. mexicana mexicana (MHOM/BZ/84/BEL46 from Pr. P.A.M Michels of De Duve Institue, UCLouvain) were maintained following the procedure previously described by the team of Pr. Quetin-Leclercq. Antileshmanial and antitrypanosomal assays were conducted as previously described, using the AlamarBlue assay.

P. falciparum 3D7 = assay: Antiplasmodial activity, lactate dehydrogenase assay; type: cell-based; conditions: Plasmodium falciparum
Method: as §1

[2] = tested on: Trypanosoma brucei brucei; assay: Antitrypanosomal assay (AlamarBlue); type: cell-based
Method: as §1

Hemolysis = type: cell-based
[3] = Zebrafish embryos acute toxicity test; type: in vivo, Danio rerio; conditions: zebrafish (Danio rerio), in vivo, other: immersion of embryos in treatment solution in wells; zebrafish embryos
Method: (§2) Adult zebrafish (Danio rerio) were maintained, fulfilling the criteria of the Ethical Committee for the Use of Laboratory Animals at the University of Liège. They were maintained at 28 °C over a period of 14 h day/10 h night, and fertilized eggs were collected, washed with sterile water, and placed in Petri dishes. The embryos were collected, and their chorions were not removed at 24 hpf. Compound 1 was dissolved in DMSO (the maximum final concentration of DMSO was 0.4%). Twenty embryos were used per condition in a 6-well plate. Each well contained 5 mL of the treatment dose (compound 1 or DMSO 0.4%), which was replaced daily for three days. The embryos were observed under a binocular microscope daily until 72 hpf (hours post fertilization).

zebrafish embryos = assay: Zebrafish embryos acute toxicity test; type: in vivo, Danio rerio
Method: as §2

A549 cells = assay: In vitro cytotoxic activity (Prestoblue); type: cell-based, human; conditions: towards Plasmodium
Method: (§3) Assays were performed on different human cancer cell lines (MDA-MB-231, PANC-1, and A549 cells obtained from ATCC) to evaluate the cytotoxicity potential of the compounds 1–3, and the crude extract. Cells were grown in high-glucose Dulbecco’s modified Eagle Medium (DMEM, Gibco) supplemented with glutamine (2 mM), penicillin (50 IU/mL), streptomycin (0.5 mg/mL), sodium pyruvate (0.5 mM), and 10% FBS (Foetal Bovine Serum) at 37 °C with 5% CO2 in the air. Compounds were tested in 96-well microplates using the Prestoblue® colorimetric assay for cell viability based on the reduction of resazurin in resorufin as previously described. Briefly, 2500 cells were seeded per well in 100 µL of medium supplemented with adequate concentrations of the tested drugs. After 72 h of drug exposure, 75 µL of diluted solution of Prestoblue reagent were added to each well, and the plate was incubated in the dark for 2 h at 37 °C. Any changes in cell viability were detected using fluorescence spectroscopy. The fluorescence of resorufin was measured using a SpectraMax i3 plate reader (Molecular Devices™) with excitation and emission wavelengths set at 560 nm and 590 nm, respectively. The cell viability was expressed as a percentage relative to control-vehicle-treated cells (DMSO 0.1%). IC50 values were calculated from graphs based on a regression line in which the resorufin fluorescence values were plotted against the logarithm of drug concentration.

MDA-MB-231 cells = assay: In vitro cytotoxic activity (Prestoblue); type: cell-based, human; conditions: towards Plasmodium
Method: as §3

PANC-1 cells = assay: In vitro cytotoxic activity (Prestoblue); type: cell-based, human; conditions: towards Plasmodium
Method: as §3

zebrafish = tested on: zebrafish; design: method as in PMID 21738604; conditions: cited from earlier work
[4] = n = 3, mean ± SD, read-out: Leishmania IC50 (converted)
[5] = 3D7, n = 3, mean ± SD, read-out: P. falciparum 3D7 IC50 (converted)
[6] = n = 3, mean ± SD, read-out: Trypanosoma IC50 (converted)

C=CC(=C)CC[C@]1(C)[C@H]2C[C@H](OC(=O)C(C)CC)C=C3[C@H](OC(C)=O)O[C@H](OC(C)=O)[C@@]32[C@H](O)C[C@@H]1C (relative stereo) [Compound 3, rel-(2S,5R,6R,8S,9S,10R,18S,19R)-18,19-epoxy-18,19-diacetoxy-6-hydroxy-2-(2-methylbutanoyloxy)cleroda-3,13(16),14-triene]
IC50 [1, 4]: 26 µg/mL and 50.3 µM | IC50 (P. falciparum 3D7; [5]): 0.51 µg/mL and 980 nM | IC50 [2, 6]: 3.03 µg/mL and 5.85 µM | hemolysis (Hemolysis): < 1%

C[C@@H]1CC[C@H]2[C@@H](C)C(=O)O[C@@H]3O[C@@]4(C)CC[C@@H]1[C@]32OO4 [Artemisinin, reference compound]
IC50 (P. falciparum 3D7; [5]): 0.004 ± 0.001 µg/mL (≈ 0.0142 µM)

C=CC(=C)CC[C@]1(C)[C@H]2C[C@H](OC(=O)CCC)C=C3[C@H](OC(C)=O)O[C@H](OC(C)=O)[C@@]32[C@H](O)C[C@@H]1C [Compound 1, caseamembrin T]
IC50 [1, 4]: 26.1 µg/mL and 51.7 µM | LC50 at 3 days [3]: 1 to 5 µg/mL (≈ 1.98 to 9.91 µM) | embryos alive (zebrafish embryos; 5 µg/mL, 48 hpf): 20% | state of embryos (zebrafish embryos; 5 µg/mL, 72 hpf): lifeless | lethality (zebrafish embryos; concentrations higher than 5 µg/mL): lethal for all embryos | mortality and morphological change (zebrafish embryos; up to a concentration of 1 µg/mL): neither mortality nor morphological change were observed | IC50 (P. falciparum 3D7; 3D7, read-out: P. falciparum 3D7 IC50): 0.25 µg/mL and 490 nM | IC50 ([2]; read-out: Trypanosoma IC50): 3.08 µg/mL and 6.11 µM | hemolysis (Hemolysis): < 1% | selectivity index against A549 (A549 cells): 6.5 | selectivity index against MDA-MB-231 (MDA-MB-231 cells): 5.4 | selectivity index against PANC-1 (PANC-1 cells): 3

C=CC(=C)CC[C@]1(C)[C@H]2C[C@H](OC(=O)C(C)C)C=C3[C@H](OC(C)=O)O[C@H](OC(C)=O)[C@@]32[C@H](O)C[C@@H]1C [Compound 2, corymbulosine I]
IC50 [1, 4]: 10.3 µg/mL and 20.4 µM | IC50 (P. falciparum 3D7; [5]): 0.4 µg/mL and 790 nM | IC50 [2, 6]: 3 µg/mL and 5.95 µM | hemolysis (Hemolysis; red blood cells, read-out: Hemolysis): < 1%

N=C(N)c1ccc(OCCCCCOc2ccc(C(=N)N)cc2)cc1 [Pentamidine, reference compound]
IC50 ([1]; read-out: Leishmania IC50): 0.02 µg/mL and 60 nM

Cc1ccc(C(=O)Nc2ccc(S(=O)(=O)O)c3cc(S(=O)(=O)O)cc(S(=O)(=O)O)c23)cc1NC(=O)c1cccc(NC(=O)Nc2cccc(C(=O)Nc3cc(C(=O)Nc4ccc(S(=O)(=O)O)c5cc(S(=O)(=O)O)cc(S(=O)(=O)O)c45)ccc3C)c2)c1 [Suramine, reference compound]
IC50 [2, 6]: 0.05 µg/mL and 40 nM

C[C@H]1O[C@@H](O[C@H]2[C@@H](O)C[C@H](O[C@H]3[C@@H](O)C[C@H](O[C@H]4CC[C@@]5(C)[C@H](CC[C@@H]6[C@@H]5C[C@@H](O)[C@]5(C)[C@@H](C7=CC(=O)OC7)CC[C@]65O)C4)O[C@@H]3C)O[C@@H]2C)C[C@H](O)[C@@H]1O [digoxin]
lethal dose 50 (LC50) (zebrafish): 0.5 ± 0.006 µg/mL

CN1CCC[C@H]1c1cccnc1 [nicotine]
lethal dose 50 (LC50) (zebrafish): 35.1 ± 0.5 µg/mL

CC(=O)Nc1ccc(O)cc1 [paracetamol]
lethal dose 50 (LC50) (zebrafish): 535.8 ± 17.1 µg/mL
